{"source": "patent US10894069B2", "about": "“Topical antiviral formulations and methods of using the same” (priority 2015, dated 2021)", "key": {"[1]": {"conditions": "cited from earlier work"}, "Herpes simplex": {"system": "Herpes simplex", "test": "Informal patient trials, topical treatment of Herpes simplex of the lips / herpes labialis", "assay_type": "in vivo, human", "conditions": "person; for benefit of prior therapy, orally: oral"}, "[2]": {"conditions": "cited from earlier work", "remark": "listed apart in the source"}, "herpes genitalias": {"system": "herpes genitalias", "test": "Patient case, topical treatment of herpes genitalis", "assay_type": "in vivo, human", "conditions": "person, high dose", "description": "Operating with informed consent, individuals treated with the topical composition and the methods of the present invention for treating herpes virus infection, more particularly Herpes simplex and herpes zoster or shingles, as described in Examples 3 to 8.\nA person presented with a decade or longer history of herpes genitalias recurring on the epithelium of the penis, more specifically the shaft. […] The patient was then treated with Composition B of the cannabinoid rich topical of Example 1 one to two times a day."}}, "data": [{"molecule": "CCCCCc1cc(O)c2c(c1)OC(C)(C)[C@@H]1CCC(C)=C[C@@H]21", "note": "[THC, delta-9-tetrahydrocannabinol]", "values": [{"measurement": "solubility in organic solvents", "setting": "[1]; specifically lipids and alcohols", "result": "good solubility in most organic solvents"}]}, {"molecule": "Nc1nc2c(ncn2COCCO)c(=O)[nH]1", "note": "[Zovirax, acyclovir]", "values": [{"measurement": "benefit of prior therapy, orally", "setting": "Herpes simplex", "result": "slight benefit"}, {"measurement": "benefit of prior therapy, topically", "setting": "Herpes simplex; topical", "result": "without benefit"}]}, {"molecule": "Nc1nc2c(ncn2COCCO)c(=O)[nH]1", "note": "[acyclovir]", "values": [{"measurement": "solubility in water", "setting": "[1]", "result": "poor water-solubility"}, {"measurement": "concentrations in the skin following topical application versus following oral administration", "setting": "[2]", "result": "2-3 times lower"}]}, {"molecule": "CC(C)[C@H](N)C(=O)OCCOCn1cnc2c(=O)[nH]c(N)nc21", "note": "[Valtrex, valacyclovir]", "values": [{"measurement": "satisfaction with prior therapy", "setting": "Herpes simplex; high doses", "result": "without total satisfaction"}, {"measurement": "benefit of prior therapy, orally", "setting": "Herpes simplex", "result": "slight benefit"}, {"measurement": "response of severe pain with burning and tingling to prior therapy", "setting": "herpes genitalias", "result": "had not responded"}]}]}
